Values quoted from earlier work, collected in US8252778B2, “Highly fluorinated oils and surfactants and methods of making and using same” (University of Utah Research Foundation, priority 2006, dated 2012).

Target: sstr2 (Homo sapiens, UniProt P30874)
Sequence (P30874 whole entry, species assumed): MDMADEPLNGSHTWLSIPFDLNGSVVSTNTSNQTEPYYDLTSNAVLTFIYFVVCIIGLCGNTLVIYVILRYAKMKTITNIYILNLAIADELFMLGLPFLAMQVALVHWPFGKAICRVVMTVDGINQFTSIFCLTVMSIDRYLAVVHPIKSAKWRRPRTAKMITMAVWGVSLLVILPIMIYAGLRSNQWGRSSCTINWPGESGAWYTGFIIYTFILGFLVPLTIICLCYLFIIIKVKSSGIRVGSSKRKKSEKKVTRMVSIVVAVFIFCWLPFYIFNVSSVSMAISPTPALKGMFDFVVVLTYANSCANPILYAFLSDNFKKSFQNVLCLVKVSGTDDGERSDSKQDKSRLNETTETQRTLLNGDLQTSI

In the case of `C[C@@H](O)[C@@H]1NC(=O)[C@H](CCCCN)NC(=O)[C@@H](Cc2c[nH]c3ccccc23)NC(=O)[C@H](Cc2ccccc2)NC(=O)[C@@H](NC(=O)[C@H](N)Cc2ccccc2)CSSC[C@@H](C(=O)N[C@H](CO)[C@@H](C)O)NC1=O` [octreotide, DPhe1-c[Cys2-Phe3-DTrp-4-Lys5-Thr6-Cys7]-Thr8-NH2], the “affinity and specificity for sstr2” value is given as “high affinity and specificity”.
